Target: Mitogen-activated protein kinase kinase kinase kinase 1 (Homo sapiens, UniProt Q92918)
Test: Inhibition of full length recombinant human N-terminal GST-tagged HPK1 expressed in baculovirus infected Sf21 insect cells preincubated for 15 mins followed by MBP and ATP addition measured after 120 mins by ADP-Glo reagent based assay

Sequence of Mitogen-activated protein kinase kinase kinase kinase 1 (Q92918 whole entry): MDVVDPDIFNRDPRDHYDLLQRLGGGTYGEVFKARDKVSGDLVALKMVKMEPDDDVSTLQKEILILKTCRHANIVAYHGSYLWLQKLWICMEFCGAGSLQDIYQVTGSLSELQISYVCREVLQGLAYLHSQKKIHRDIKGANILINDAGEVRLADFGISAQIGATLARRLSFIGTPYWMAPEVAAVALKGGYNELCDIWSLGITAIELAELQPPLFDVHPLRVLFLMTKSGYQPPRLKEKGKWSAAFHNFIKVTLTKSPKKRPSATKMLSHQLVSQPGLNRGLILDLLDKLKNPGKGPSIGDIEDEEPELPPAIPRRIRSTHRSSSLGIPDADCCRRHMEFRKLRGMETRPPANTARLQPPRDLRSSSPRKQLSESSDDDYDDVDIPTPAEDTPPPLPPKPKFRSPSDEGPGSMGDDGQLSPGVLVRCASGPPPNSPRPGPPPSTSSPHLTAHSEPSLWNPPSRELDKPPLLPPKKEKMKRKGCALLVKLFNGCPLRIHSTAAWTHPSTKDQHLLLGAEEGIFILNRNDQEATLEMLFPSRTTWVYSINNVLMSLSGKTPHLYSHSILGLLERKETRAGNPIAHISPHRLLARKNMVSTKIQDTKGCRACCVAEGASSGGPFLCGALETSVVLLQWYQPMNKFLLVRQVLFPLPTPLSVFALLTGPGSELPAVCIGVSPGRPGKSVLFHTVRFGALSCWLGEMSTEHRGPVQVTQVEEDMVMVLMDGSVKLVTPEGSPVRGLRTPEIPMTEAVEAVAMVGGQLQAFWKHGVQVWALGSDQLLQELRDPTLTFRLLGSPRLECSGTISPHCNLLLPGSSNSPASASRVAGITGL

Structure (SMILES) | IC50 [nM]
Cc1c(N2CCc3cnc(Nc4ccc(N5CCN(C)CC5)cc4)nc3C2)cnc2c1NCCO2 [US20240025922, Example 55] | < 100
CCc1c(N2CCc3cnc(Nc4ccc(CS(C)(=O)=O)cc4)nc3C2)cnc2c1NCCO2 [US20240025922, Example 145] | < 100
Cc1c(N2CCc3cnc(Nc4ccc5c(c4)CCOC5)nc3C2)cnc2c1NCCO2 [US20240025922, Example 84] | < 100
Cc1c(N2CCc3cnc(Nc4ccc(Cn5cccn5)cc4)nc3C2)cnc2c1NCCO2 [US20240025922, Example 187] | < 100
COC1CCN(c2ccc(Nc3ncc4c(n3)CN(c3cnc5c(c3C)NCCO5)CC4)cc2)CC1 [US20240025922, Example 113] | < 100
Cc1c(N2CCc3cnc(Nc4ccc(Cn5nccn5)cc4)nc3C2)cnc2c1NCCO2 [US20240025922, Example 185] | < 100
